Laboratory results taken from article PMC5218480 (PLoS ONE, 2017).

Tested on: MV-4-11 cells
Assay: Gene expression microarray analysis (Affymetrix PrimeView) and GSEA
Assay type: cell-based, human
Set-up: RFU PODN (11730768_x_at) / Fold change /veh PODN (11730768_x_at) / RFU LINC00158 (11744669_a_at) / Fold change /veh LINC00158 (11744669_a_at) / RFU DUSP10 (11751237_a_at) / Fold change /veh DUSP10 (11751237_a_at) / RFU ID3 (11757404_x_at) / Fold change /veh ID3 (11757404_x_at) / RFU PLEKHG5 (11737974_s_at) / Fold change /veh PLEKHG5 (11737974_s_at) / RFU LRRC4B (11730491_at) / Fold change /veh LRRC4B (11730491_at) / RFU GIMAP4 (11747438_a_at) / Fold change /veh GIMAP4 (11747438_a_at) / RFU KRT8 (11758183_x_at) / Fold change /veh KRT8 (11758183_x_at) / RFU CNN1 (11734310_a_at) / Fold change /veh CNN1 (11734310_a_at) / RFU VPS37D (11726825_at) / Fold change /veh VPS37D (11726825_at) / RFU C10orf10 (11716522_x_at) / Fold change /veh C10orf10 (11716522_x_at) / RFU KIR2DL2 /// KIR2DL4 /// KIR2DL5A /// KIR2DL5B /// KIR2DS1 /// KIR2DS2 /// KIR2DS3 /// KIR2DS4 /// KIR3DL3 /// KIR3DL3 /// KIR3DS1 (11738374_at) / Fold change /veh KIR2DL2 /// KIR2DL4 /// KIR2DL5A /// KIR2DL5B /// KIR2DS1 /// KIR2DS2 /// KIR2DS3 /// KIR2DS4 /// KIR3DL3 /// KIR3DL3 /// KIR3DS1 (11738374_at) / RFU C1QL1 (11718748_at) / Fold change /veh C1QL1 (11718748_at) / RFU TMPRSS4 (11747572_a_at) / Fold change /veh TMPRSS4 (11747572_a_at) / RFU HAMP (11756126_x_at) / Fold change /veh HAMP (11756126_x_at) / RFU RNFT2 (11725882_a_at) / Fold change /veh RNFT2 (11725882_a_at) / RFU NR4A2 (11747474_a_at) / Fold change /veh NR4A2 (11747474_a_at) / RFU ABCC12 (11746883_a_at) / Fold change /veh ABCC12 (11746883_a_at) / RFU TMEM136 (11760407_x_at) / Fold change /veh TMEM136 (11760407_x_at) / RFU CLDN22 /// WWC2 (11732394_at) / Fold change /veh CLDN22 /// WWC2 (11732394_at) / RFU HLA-DPB1 (11760878_x_at) / Fold change /veh HLA-DPB1 (11760878_x_at) / RFU SPINT1 (11716480_a_at) / Fold change /veh SPINT1 (11716480_a_at) / RFU GAP43 (11754022_s_at) / Fold change /veh GAP43 (11754022_s_at) / RFU A4GNT (11735810_at) / Fold change /veh A4GNT (11735810_at) / RFU PRB3 (11715151_x_at) / Fold change /veh PRB3 (11715151_x_at) / RFU TUBB4B (11761932_at) / Fold change /veh TUBB4B (11761932_at) / RFU CAPN14 (11732068_a_at) / Fold change /veh CAPN14 (11732068_a_at) / RFU TMCC2 (11721928_a_at) / Fold change /veh TMCC2 (11721928_a_at) / RFU IRGQ (11745062_a_at) / Fold change /veh IRGQ (11745062_a_at) / RFU FAM174B (11720279_a_at) / Fold change /veh FAM174B (11720279_a_at) / RFU TMPRSS4 (11748680_a_at) / Fold change /veh TMPRSS4 (11748680_a_at) / RFU FAM212B (11763350_a_at) / Fold change /veh FAM212B (11763350_a_at) / RFU PLEKHG5 (11743358_a_at) / Fold change /veh PLEKHG5 (11743358_a_at) / RFU ZSCAN30 (11745921_a_at) / Fold change /veh ZSCAN30 (11745921_a_at) / RFU CMKLR1 (11741424_a_at) / Fold change /veh CMKLR1 (11741424_a_at) / RFU LOC101060620 /// MAPK8IP1 (11723275_at) / Fold change /veh LOC101060620 /// MAPK8IP1 (11723275_at) / RFU SPTSSB (11747773_x_at) / Fold change /veh SPTSSB (11747773_x_at) / RFU PRSS12 (11739890_at) / Fold change /veh PRSS12 (11739890_at) / RFU BIN1 (11741810_x_at) / Fold change /veh BIN1 (11741810_x_at) / RFU WNT11 (11732464_a_at) / Fold change /veh WNT11 (11732464_a_at) / RFU C10orf10 (11716521_a_at) / Fold change /veh C10orf10 (11716521_a_at) / RFU C5orf56 (11738089_at) / Fold change /veh C5orf56 (11738089_at) / RFU CYB561 (11721691_x_at) / Fold change /veh CYB561 (11721691_x_at) / RFU ANKRD19P (11752326_a_at) / Fold change /veh ANKRD19P (11752326_a_at) / RFU OR2T12 /// OR2T33 /// OR2T8 (11738714_s_at) / Fold change /veh OR2T12 /// OR2T33 /// OR2T8 (11738714_s_at) / RFU VCAN (11748164_a_at) / Fold change /veh VCAN (11748164_a_at) / RFU JSRP1 (11732532_at) / Fold change /veh JSRP1 (11732532_at) / RFU KRTAP10-11 (11738290_x_at) / Fold change /veh KRTAP10-11 (11738290_x_at) / RFU MYO3A (11730013_a_at) / Fold change /veh MYO3A (11730013_a_at) / RFU EBF3 (11725865_a_at) / Fold change /veh EBF3 (11725865_a_at) / RFU CAMK2N1 (11719241_x_at) / Fold change /veh CAMK2N1 (11719241_x_at) / RFU C5orf56 (11738088_a_at) / Fold change /veh C5orf56 (11738088_a_at) / RFU OLFML3 (11715873_a_at) / Fold change /veh OLFML3 (11715873_a_at) / RFU LOC100653217 /// NTM (11731650_a_at) / Fold change /veh LOC100653217 /// NTM (11731650_a_at) / RFU MAPK11 (11762145_a_at) / Fold change /veh MAPK11 (11762145_a_at) / RFU FIZ1 (11724087_x_at) / Fold change /veh FIZ1 (11724087_x_at) / RFU OASL (11726364_x_at) / Fold change /veh OASL (11726364_x_at) / RFU SOX15 (11748057_x_at) / Fold change /veh SOX15 (11748057_x_at) / RFU CD79A (11719716_a_at) / Fold change /veh CD79A (11719716_a_at) / RFU HIST1H1D (11736915_at) / Fold change /veh HIST1H1D (11736915_at) / RFU CASKIN2 (11723855_a_at) / Fold change /veh CASKIN2 (11723855_a_at) / RFU LOC730098 (11760151_x_at) / Fold change /veh LOC730098 (11760151_x_at) / RFU OR4N2 (11742367_at) / Fold change /veh OR4N2 (11742367_at) / RFU PRRT2 (11749266_a_at) / Fold change /veh PRRT2 (11749266_a_at) / RFU SNX32 (11753110_a_at) / Fold change /veh SNX32 (11753110_a_at) / RFU CDHR5 (11726645_a_at) / Fold change /veh CDHR5 (11726645_a_at) / RFU RCAN1 (11760418_a_at) / Fold change /veh RCAN1 (11760418_a_at) / RFU FAM167A (11723789_a_at) / Fold change /veh FAM167A (11723789_a_at) / RFU FAM26E (11764081_at) / Fold change /veh FAM26E (11764081_at) / RFU ISYNA1 (11749810_s_at) / Fold change /veh ISYNA1 (11749810_s_at) / RFU ACY1 (11761880_at) / Fold change /veh ACY1 (11761880_at) / RFU 11764098_at / Fold change /veh 11764098_at / RFU SAMD14 (11745864_x_at) / Fold change /veh SAMD14 (11745864_x_at) / RFU NPB (11741838_a_at) / Fold change /veh NPB (11741838_a_at) / RFU TMPRSS6 (11731388_a_at) / Fold change /veh TMPRSS6 (11731388_a_at) / RFU KRTAP10-2 (11738614_at) / Fold change /veh KRTAP10-2 (11738614_at) / RFU ARHGAP8 /// PRR5-ARHGAP8 (11727945_x_at) / Fold change /veh ARHGAP8 /// PRR5-ARHGAP8 (11727945_x_at) / RFU KRTAP5-7 /// NADSYN1 (11734609_at) / Fold change /veh KRTAP5-7 /// NADSYN1 (11734609_at) / RFU RASL12 (11751679_a_at) / Fold change /veh RASL12 (11751679_a_at) / RFU CDKN2B (11736163_a_at) / Fold change /veh CDKN2B (11736163_a_at) / RFU PRF1 (11729649_at) / Fold change /veh PRF1 (11729649_at) / RFU, ZNF638 /// ZNF638-IT1 / Fold change vs veh, ZNF638 /// ZNF638-IT1 / RFU, PANK3 / Fold change vs veh, PANK3 / RFU, SH3YL1 / Fold change vs veh, SH3YL1 / RFU, ZEB2 / Fold change vs veh, ZEB2 / RFU, NRIP1 / Fold change vs veh, NRIP1 / RFU, PTTG1IP / Fold change vs veh, PTTG1IP / RFU, CAPN2 / Fold change vs veh, CAPN2 / RFU, MED14 / Fold change vs veh, MED14 / RFU, SNORA58 / Fold change vs veh, SNORA58 / RFU, C1orf63 / Fold change vs veh, C1orf63 / RFU, LRRFIP1 / Fold change vs veh, LRRFIP1 / RFU, NDUFAF7 / Fold change vs veh, NDUFAF7 / RFU, SLC12A2 / Fold change vs veh, SLC12A2 / RFU, IBTK / Fold change vs veh, IBTK / RFU, ESF1 / Fold change vs veh, ESF1 / Fold change vs veh, TMEM50B / RFU, TAOK1 / Fold change vs veh, TAOK1 / RFU, ACBD3 / Fold change vs veh, ACBD3 / RFU, TMA16 / Fold change vs veh, TMA16 / RFU, RWDD3 / Fold change vs veh, RWDD3 / RFU, BCAT1 / Fold change vs veh, BCAT1 / RFU, EDEM3 / Fold change vs veh, EDEM3 / RFU, TMEM33 / Fold change vs veh, TMEM33 / RFU, WDR75 / Fold change vs veh, WDR75 / RFU, AHCTF1 / Fold change vs veh, AHCTF1 / RFU, TFRC / Fold change vs veh, TFRC / RFU, ZDHHC17 / Fold change vs veh, ZDHHC17 / RFU, NOM1 / Fold change vs veh, NOM1 / RFU, ARL8B / Fold change vs veh, ARL8B / RFU, ZBTB11 / Fold change vs veh, ZBTB11 / RFU, TAMM41 / Fold change vs veh, TAMM41 / RFU, KIAA1704 /// LOC100996395 / Fold change vs veh, KIAA1704 /// LOC100996395 / RFU, ING1 / Fold change vs veh, ING1 / RFU, TRMT61B / Fold change vs veh, TRMT61B / RFU, FUBP3 / Fold change vs veh, FUBP3 / RFU, TP53 / Fold change vs veh, TP53 / RFU, TNKS2 / Fold change vs veh, TNKS2 / RFU, ZFP14 / Fold change vs veh, ZFP14 / RFU, ACTR2 / Fold change vs veh, ACTR2 / RFU, PPP3R1 / Fold change vs veh, PPP3R1 / RFU, PIK3R1 / Fold change vs veh, PIK3R1 / RFU, HNRNPA1 / Fold change vs veh, HNRNPA1 / RFU, RNF170 / Fold change vs veh, RNF170 / RFU, ZNF28 / Fold change vs veh, ZNF28 / RFU, RNGTT / Fold change vs veh, RNGTT / RFU, OGT / Fold change vs veh, OGT / RFU, BRD1 / Fold change vs veh, BRD1 / RFU, MARS / Fold change vs veh, MARS / RFU, ZNF655 / Fold change vs veh, ZNF655 / RFU, FAHD1 / Fold change vs veh, FAHD1 / RFU, BDP1 / Fold change vs veh, BDP1 / RFU, LRRCC1 / Fold change vs veh, LRRCC1 / RFU, ARID1A / Fold change vs veh, ARID1A / RFU, ZNF146 / Fold change vs veh, ZNF146 / RFU, ZNF330 / Fold change vs veh, ZNF330 / RFU, GPN3 / Fold change vs veh, GPN3 / RFU, C9orf123 / Fold change vs veh, C9orf123 / RFU, N4BP2L2 / Fold change vs veh, N4BP2L2 / RFU, ARFIP1 / Fold change vs veh, ARFIP1 / RFU, FAM179B / Fold change vs veh, FAM179B / RFU, BCL10 / Fold change vs veh, BCL10 / RFU, UHRF1BP1L / Fold change vs veh, UHRF1BP1L / RFU, BET1 / Fold change vs veh, BET1 / RFU, CNOT2 / Fold change vs veh, CNOT2 / RFU, ZNF268 / Fold change vs veh, ZNF268 / Fold change vs veh, ZNF507 / RFU, DGCR2 / Fold change vs veh, DGCR2 / RFU, WDSUB1 / Fold change vs veh, WDSUB1 / Fold change vs veh, HSP90B1 /// MIR3652 / RFU, ADSS / Fold change vs veh, ADSS / RFU, GK / Fold change vs veh, GK / RFU, ZNF148 / Fold change vs veh, ZNF148 / RFU, TAF9 / Fold change vs veh, TAF9 / RFU, SLC1A5 / Fold change vs veh, SLC1A5 / RFU, SLMO2 / Fold change vs veh, SLMO2 / RFU, ABCC4 / Fold change vs veh, ABCC4 / RFU, LOC101060439 /// RAP1B / Fold change vs veh, LOC101060439 /// RAP1B / RFU, RFX7 / Fold change vs veh, RFX7 / RFU, GTPBP10 / Fold change vs veh, GTPBP10 / RFU, CNEP1R1 / Fold change vs veh, CNEP1R1 / RFU, BIVM-ERCC5 /// ERCC5 / Fold change vs veh, BIVM-ERCC5 /// ERCC5 / RFU, ILF3 / Fold change vs veh, ILF3 / RFU 11762660_at / Fold change /veh 11762660_at / RFU VCAN (11757783_s_at) / Fold change /veh VCAN (11757783_s_at) / RFU DDX43 (11728927_at) / Fold change /veh DDX43 (11728927_at) / RFU KRT8 (11758188_x_at) / Fold change /veh KRT8 (11758188_x_at) / RFU NKD1 (11759106_at) / Fold change /veh NKD1 (11759106_at) / RFU SRD5A1 (11742802_a_at) / Fold change /veh SRD5A1 (11742802_a_at) / RFU TPSAB1 /// TPSB2 (11721975_s_at) / Fold change /veh TPSAB1 /// TPSB2 (11721975_s_at) / RFU GSTM3 (11746129_a_at) / Fold change /veh GSTM3 (11746129_a_at) / RFU IL23R (11737362_x_at) / Fold change /veh IL23R (11737362_x_at) / RFU TMEM51 (11727254_a_at) / Fold change /veh TMEM51 (11727254_a_at) / RFU PIWIL2 (11732686_x_at) / Fold change /veh PIWIL2 (11732686_x_at) / RFU ORM1 (11744905_x_at) / Fold change /veh ORM1 (11744905_x_at) / RFU CCDC152 (11743942_at) / Fold change /veh CCDC152 (11743942_at) / RFU ECM1 (11717891_a_at) / Fold change /veh ECM1 (11717891_a_at) / RFU IL23R (11748794_a_at) / Fold change /veh IL23R (11748794_a_at) / RFU TNFAIP8L3 (11732012_x_at) / Fold change /veh TNFAIP8L3 (11732012_x_at) / RFU MBOAT4 (11741988_at) / Fold change /veh MBOAT4 (11741988_at) / RFU 11764193_at / Fold change /veh 11764193_at / RFU TMEM53 (11763286_at) / Fold change /veh TMEM53 (11763286_at) / RFU MAGEB2 (11727129_at) / Fold change /veh MAGEB2 (11727129_at) / RFU TMEM200A (11744735_a_at) / Fold change /veh TMEM200A (11744735_a_at) / RFU CCDC152 (11751479_a_at) / Fold change /veh CCDC152 (11751479_a_at) / RFU FAM211A (11726209_a_at) / Fold change /veh FAM211A (11726209_a_at) / RFU RGS16 (11746705_a_at) / Fold change /veh RGS16 (11746705_a_at) / RFU VCAN (11755009_s_at) / Fold change /veh VCAN (11755009_s_at) / RFU RHOB (11743442_s_at) / Fold change /veh RHOB (11743442_s_at) / RFU RGS16 (11720943_a_at) / Fold change /veh RGS16 (11720943_a_at) / RFU RGS16 (11720944_at) / Fold change /veh RGS16 (11720944_at) / RFU, VPS4B / Fold change vs veh, VPS4B / RFU, CREB1 / Fold change vs veh, CREB1 / RFU, DNAJC13 / Fold change vs veh, DNAJC13 / RFU, GNAQ / Fold change vs veh, GNAQ / RFU, CDK5R1 / Fold change vs veh, CDK5R1 / RFU, ZRANB3 / Fold change vs veh, ZRANB3 / RFU, CUL4A / Fold change vs veh, CUL4A / RFU, CCNY / Fold change vs veh, CCNY / RFU, UFL1 / Fold change vs veh, UFL1 / RFU, COG3 / Fold change vs veh, COG3 / RFU, DIAPH2 / Fold change vs veh, DIAPH2 / RFU, SKA2 / Fold change vs veh, SKA2 / RFU, AFF3 / Fold change vs veh, AFF3 / RFU, LMF1 / Fold change vs veh, LMF1 / RFU, IPO11 / Fold change vs veh, IPO11 / RFU, DFFB / Fold change vs veh, DFFB / RFU, FOXP1 / Fold change vs veh, FOXP1 / RFU, CARD8 / Fold change vs veh, CARD8 / RFU, STRN3 / Fold change vs veh, STRN3 / RFU, ADK / Fold change vs veh, ADK / RFU, RASSF2 / Fold change vs veh, RASSF2 / RFU, WIPF1 / Fold change vs veh, WIPF1 / RFU, LARP1B / Fold change vs veh, LARP1B / RFU, RASA1 / Fold change vs veh, RASA1 / RFU, RB1 / Fold change vs veh, RB1 / RFU, PPFIA1 / Fold change vs veh, PPFIA1 / RFU, MAT2A / Fold change vs veh, MAT2A / RFU, CCT5 / Fold change vs veh, CCT5 / RFU, WDR92 / Fold change vs veh, WDR92 / RFU, CUX1 / Fold change vs veh, CUX1 / RFU, TTC7A / Fold change vs veh, TTC7A / RFU, TMEM135 / Fold change vs veh, TMEM135 / RFU, DEPTOR / Fold change vs veh, DEPTOR / RFU, CPM / Fold change vs veh, CPM / RFU, DNAJB6 / Fold change vs veh, DNAJB6 / RFU, CACNA2D3 / Fold change vs veh, CACNA2D3 / RFU, DTX4 / Fold change vs veh, DTX4 / RFU, TFCP2 / Fold change vs veh, TFCP2 / RFU, GMCL1 /// GMCL1P1 / Fold change vs veh, GMCL1 /// GMCL1P1 / RFU, AEBP2 / Fold change vs veh, AEBP2 / RFU, SNHG1 /// SNORD22 /// SNORD25 /// SNORD26 /// SNORD27 /// SNORD28 /// SNORD29 /// SNORD31 / Fold change vs veh, SNHG1 /// SNORD22 /// SNORD25 /// SNORD26 /// SNORD27 /// SNORD28 /// SNORD29 /// SNORD31 / Fold change (Aza/veh), C12orf56 (ProbeSet 11735607_a_at) / Fold change (ACY-1035/veh), C12orf56 (ProbeSet 11735607_a_at) / Fold change (Aza/veh), FGFR1OP (ProbeSet 11751329_s_at) / Fold change (ACY-1035/veh), FGFR1OP (ProbeSet 11751329_s_at) / Fold change (Aza/veh), VPS36 (ProbeSet 11739960_a_at) / Fold change (ACY-1035/veh), VPS36 (ProbeSet 11739960_a_at) / RFU SYPL1 (11715823_x_at) / Fold change /veh SYPL1 (11715823_x_at) / RFU IGFBP7 (11715501_s_at) / Fold change /veh IGFBP7 (11715501_s_at) / RFU REEP3 (11722064_at) / Fold change /veh REEP3 (11722064_at) / RFU IGLL1 (11728026_x_at) / Fold change /veh IGLL1 (11728026_x_at): dose or concentration left out as unconfirmed
Details: MV-4-11 cells, 48 hours

With `Nc1ccc(-c2cccs2)cc1NC(=O)c1ccc2c(c1)cc(C1CC1)n2CCN1CCOCC1` [ACY-1035] the “Fold change /veh A4GNT (11735810_at)” value was 1.01.
